Biological target: T1, human renal renin (Homo sapiens, UniProt P00797)
T1 construct: human renal renin, free from acid proteolytic activity; from tissue
T1 sequence (P00797 67-406): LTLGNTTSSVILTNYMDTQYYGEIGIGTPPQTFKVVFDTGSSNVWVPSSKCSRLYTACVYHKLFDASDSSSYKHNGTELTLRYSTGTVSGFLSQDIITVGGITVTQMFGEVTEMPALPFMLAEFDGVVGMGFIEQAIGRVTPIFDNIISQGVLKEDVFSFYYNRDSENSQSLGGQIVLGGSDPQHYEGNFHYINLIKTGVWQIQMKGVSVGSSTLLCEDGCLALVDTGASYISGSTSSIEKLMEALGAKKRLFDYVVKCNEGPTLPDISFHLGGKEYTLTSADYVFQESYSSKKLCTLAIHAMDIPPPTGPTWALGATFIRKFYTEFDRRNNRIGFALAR
Test: Inhibition of human renal renin in vitro (angiotensin I formed measured by radioimmunoassay)
Assay type: biochemical
Conditions: human renal renin free from acid proteolytic activity, renin substrate human angiotensinogen, 37 degrees C, pH 6.0; read-out: IC50 (molar concentration required to cause 50% inhibition)
Description: The compounds of the invention are also useful for treating congestive heart failure in a mammal. […] At the end of the incubation, the amount of angiotensin I formed is measured by radioimmunoassay and the molar concentration required to cause 50% inhibition, expressed as the IC50, is calculated.

IC50 [nM] | SMILES
0.33 | CC(C)C[C@H](O)[C@H](O)[C@H](CC1CCCCC1)NC(=O)[C@H](Cc1cscn1)NC(=O)[C@@H](CC(=O)N(C)CCc1ccccn1)Cc1ccccc1 [Example 114]
0.57 | CC(C)C[C@H](O)[C@H](O)[C@H](CC1CCCCC1)NC(=O)[C@H](Cc1cscn1)NC(=O)[C@@H](CC(=O)N1CCN(CC(F)(F)F)CC1)Cc1ccccc1 [Example 94, (2R)-2-Benzyl-3-(4-trifluoroethylpiperazin-1-ylcarbonyl)propionyl-L-(4-thiazolyl)Ala Amide of (2S,3R,4S)-2-Amino-1-cyclohexyl-3,4-dihydroxy-6-methylheptane]
0.69 | CC(C)C[C@H](O)[C@H](O)[C@H](CC1CCCCC1)NC(=O)[C@H](Cc1cscn1)NC(=O)[C@H](Cc1ccccc1)Cn1ccnc1 [Example 102, (2R)-2-Benzyl-3-imidazol-1-ylpropionyl-L-(4-thiazolyl)Ala Amide of (2S,3R,4S)-2-Amino-1-cyclohexyl-3,4-dihydroxy-6-methylheptane]
1.3 | CC(C)C[C@H](O)[C@H](O)[C@H](CC1CCCCC1)NC(=O)C(Cn1cccn1)N(C)C(=O)[C@@H](CC(=O)N(C)CCc1ccccn1)Cc1ccccc1 (stereo partly drawn) [Example 134, (2R)-2-Benzyl-3-[(2-pyridin-2-ylethyl)methylaminocarbonyl]propionyl-(N-α-methyl)-(1-pyrazolyl) alanine Amide of (2S,3R,4S)-2-Amino-1-cyclohexyl-3,4-dihydroxy-6-methylheptane]
0.3 | CC(C)C[C@H](O)[C@H](O)[C@H](CC1CCCCC1)NC(=O)[C@H](Cc1cscn1)NC(=O)[C@@H](CC(=O)N(C)CCn1ccnc1)Cc1ccccc1 [Example 117, (2R)-2-Benzyl-3-[(2-imidazol-1-ylethyl)methylaminocarbonyl]propionyl-L-(4-thiazolyl)Ala Amide of (2S,3R,4S)-2-Amino-1-cyclohexyl-3,4-dihydroxy-6-methylheptane]
0.88 | CC(C)C[C@H](O)[C@H](O)[C@H](CC1CCCCC1)NC(=O)[C@H](Cn1ccnc1)NC(=O)[C@@H](CC(=O)N(C)CCc1ccccn1)Cc1ccccc1 [Example 141, (2R)-2-Benzyl-3-[(2-pyridin-2-ylethyl)methylaminocarbonyl]propionyl-L-(1-imidazolyl)Ala Amide of (2S,3R,4S)-2-Amino-1-cyclohexyl-3,4-dihydroxy-6-methylheptane]
0.25 | CC[C@H](O)[C@H](O)[C@H](CC1CCCCC1)NC(=O)[C@H](Cc1cscn1)NC(=O)[C@@H](CC(=O)N(C)CCn1cccn1)Cc1ccccc1 [Example 112, (2R)-2-Benzyl-3-[(2-pyrazol-1-ylethyl)methylaminocarbonyl]propionyl-L-(4-Thiazolyl)Ala Amide of (2S,3R,4S)-2-Amino-1-cyclohexyl-3,4-dihydroxyhexane]
0.4 | CC(C)C[C@H](O)[C@H](O)[C@H](CC1CCCCC1)NC(=O)[C@H](Cc1cscn1)NC(=O)[C@@H](CC(=O)N(C)CCN1CCOCC1)Cc1ccccc1 [Example 96, (2R)-2-Benzyl-3-[(2-morpholin-4-ylethyl)methylaminocarbonyl]propionyl-L-(4-thiazolyl)Ala Amide of (2S,3R,4S)-2-Amino-1-cyclohexyl-3,4-dihydroxy-6-methylheptane]
0.68 | CC(C)C[C@H](O)[C@H](O)[C@H](CC1CCCCC1)NC(=O)[C@H](Cc1cscn1)NC(=O)[C@H](Cc1ccccc1)Cc1cscn1 [Example 97, (2R)-2-Benzyl-3-thiazol-4-ylpropionyl-L-(4-thiazolyl)Ala Amide of (2S,3R,4S)-2-Amino-1-cyclohexyl-3,4-dihydroxy-6-methylheptane]
0.22 | CC(C)C[C@H](O)[C@H](O)[C@H](CC1CCCCC1)NC(=O)[C@H](Cn1cccn1)NC(=O)[C@@H](CC(=O)N(C)CCn1ccnc1)Cc1ccccc1 [Example 120, (2R)-2-Benzyl-3-[(2-imidazol-1-ylethyl)methylaminocarbonyl]propionyl-L-(1-pyrazolyl)Ala Amide of (2S,3R,4S)-2-Amino-1-cyclohexyl-3,4-dihydroxy-6-methylheptane]
0.67 | CC(C)C[C@H](O)[C@H](O)[C@H](CC1CCCCC1)NC(=O)[C@H](Cc1cscn1)NC(=O)[C@H](Cc1ccccc1)Cn1cccn1 [Example 101, (2R)-2-Benzyl-3-pyrazol-1-ylpropionyl-L-(4-thiazolyl)Ala Amide of (2S,3R,4S)-2-Amino-1-cyclohexyl-3,4-dihydroxy-6-methylheptane]
0.34 | CC(C)C[C@H](O)[C@H](O)[C@H](CC1CCCCC1)NC(=O)[C@H](Cc1cscn1)NC(=O)[C@@H](CC(=O)N(C)c1ccncc1)Cc1ccccc1 [Example 124, (2R)-2-Benzyl-3-[(N-pyridin-4-yl)methylaminocarbonyl]propionyl-L-(4-thiazolyl)Ala Amide of (2S,3R,4S)-2-Amino-1-cyclohexyl-3,4-dihydroxy-6-methylheptane]
0.35 | CC(C)C[C@H](O)[C@H](O)[C@H](CC1CCCCC1)NC(=O)[C@H](Cc1cscn1)NC(=O)[C@@H](CC(=O)N(C)CCN1CCN(C)CC1)Cc1ccccc1 [Example 116, (2R)-2-Benzyl-3-[2-(4-methyloioerazin-1-ylethyl)methylaminocarbonyl]propionyl-L-(4-thiazolyl) Ala Amide of (2S,3R,4S)-2-Amino-1-cyclohexyl-3,4-dihydroxy-6-methylheptane]
0.43 | CCCC[C@H](NC(=O)[C@@H](CC(=O)N(C)CCc1ccccn1)Cc1ccccc1)C(=O)N[C@@H](CC1CCCCC1)[C@@H](O)[C@@H](O)CC(C)C [Example 122, (2R)-2-Benzyl-3-[(2-pyridin-2-ylethyl)methylaminocarbonyl]propionyl-Nle Amide of (2S,3R,4S)-2-Amino-1-cyclohexyl-3,4-dihydroxy-6-methylheptane]
0.55 | CC(C)C[C@H](O)[C@H](O)[C@H](CC1CCCCC1)NC(=O)[C@H](Cc1cscn1)NC(=O)[C@@H](CC(=O)N1CCN(C2CC2)CC1)Cc1ccccc1 [Example 125, (2R)-2-Benzyl-3-[(4-cyclopropylpiperazin-1-yl)carbonyl]propionyl-L-(4-thiazolyl)Ala Amide of (2S,3R,4S)-2-Amino-1-cyclohexyl-3,4-dihydroxy-6-methylheptane]
0.19 | CC(C)C[C@H](O)[C@H](O)[C@H](CC1CCCCC1)NC(=O)[C@H](Cn1cccn1)NC(=O)[C@@H](CC(=O)N(C)CCn1cccn1)Cc1ccccc1 [Example 142, (2R)-2-Benzyl-3-[(2-pyrazol-1-ylethyl)methylaminocarbonyl]propionyl-L-(1-pyrazolyl)Ala Amide of (2S,3R,4S)-2-Amino-1-cyclohexyl-3,4-dihydroxy-6-methylheptane]
0.56 | CC(C)C[C@H](O)[C@H](O)[C@H](CC1CCCCC1)NC(=O)[C@H](Cc1cscn1)NC(=O)[C@@H](CC(=O)CN1CCOCC1)Cc1ccccc1 [Example 95, (2R)-2-Benzyl-5-morpholin-4-yl-4-oxopentanoyl-L-(4-thiazolyl)Ala Amide of (2S,3R,4S)-2-Amino-1-cyclohexyl-3,4-dihydroxy-6-methylheptane]
0.38 | CC(C)C[C@H](O)[C@H](O)[C@H](CC1CCCCC1)NC(=O)[C@H](Cc1cccs1)NC(=O)[C@@H](CC(=O)N(C)CCn1cccn1)Cc1ccccc1 [Example 106, (2R)-2-Benzyl-3-[(2-pyrazol-1-ylethyl)methylaminocarbonyl]propionyl-L-(2-thienyl)Ala Amide of (2S,3R,4S)-2-Amino-1-cyclohexyl-3,4-dihydroxy-6-methylheptane]
0.28 | CC(C)C[C@H](O)[C@H](O)[C@H](CC1CCCCC1)NC(=O)[C@H](Cc1cscn1)NC(=O)[C@@H](CC(=O)N(C)CCn1cccc1)Cc1ccccc1 [Example 153, (2R)-2-Benzyl-3-[(2-pyrrol-1-ylethyl)methylcarbonyl]propionyl-L-(4-thiazolyl)Ala Amide of (2S,3R,4S)-2-Amino-1-cyclohexyl-3,4-dihydroxy-6-methylheptane]
0.21 | CC(C)C[C@H](O)[C@H](O)[C@H](CC1CCCCC1)NC(=O)[C@H](Cc1cscn1)NC(=O)[C@@H](CC(=O)CCCc1ccncc1)Cc1ccccc1 [Example 154, (2R)-2-Benzyl-3-[(2-pyridin-4-ylethyl)methylcarbonyl]propionyl-L-(4-thiazolyl)Ala Amide of (2S,3R,4S)-2-Amino-1-cyclohexyl-3,4-dihydroxy-6-methylheptane]
0.26 | CCCC[C@H](NC(=O)[C@@H](CC(=O)N(C)CCn1ccnc1)Cc1ccccc1)C(=O)N[C@@H](CC1CCCCC1)[C@@H](O)[C@@H](O)CC(C)C [Example 123, (2R)-2-Benzyl-3-[(2-imidazol-1-ylethyl)methylaminocarbonyl]propionyl-Nle Amide of (2S,3R,4S)-2-Amino-1-cyclohexyl-3,4-dihydroxy-6-methylheptane]
0.43 | CC(C)C[C@H](O)[C@H](O)[C@H](CC1CCCCC1)NC(=O)[C@H](Cc1cscn1)NC(=O)[C@H](Cc1ccccc1)Cc1csc(N(C)C)n1 [Example 104, (2R)-2-Benzyl-3-(2-dimethylaminothiazol-4-yl)propionyl-L-(4-thiazolyl)Ala Amide of (2S,3R,4S)-2-Amino-1-cyclohexyl-3,4-dihydroxy-6-methylheptane]
0.89 | CC(C)C[C@H](O)[C@H](O)[C@H](CC1CCCCC1)NC(=O)[C@H](Cn1ccnc1)NC(=O)[C@@H](CC(=O)N(C)CCn1cccn1)Cc1ccccc1 [Example 107, (2R)-2-Benzyl-3-[(2-pyrazol-1-ylethyl)methylaminocarbonyl]propionyl-L-(1-imidazolyl)Ala Amide of (2S,3R,4S)-2-Amino-1-cyclohexyl-3,4-dihydroxy-6-methylheptane]
